Reference: US20260198493A1, “HYDRAZIDE COMPOUND AND AGRICULTURAL/HORTICULTURAL FUNGICIDE” (Nippon Soda Co., Ltd., priority 2022, published 2026)

What was measured:
[1] = system: Erysiphe graminis f.sp.tritici; assay: Control test of wheat powdery mildew disease (sprayed young wheat seedlings); assay type: in vivo; conditions: Blumeria graminis, 144 h, 125 ppm by mass spray, six days after inoculation
Text: [formula] […] Then, the drug liquid was sprayed onto young wheat seedlings cultivated in a nursery pot (variety “Chihoku”, one-to two-leaf stage), and then air-dried. Thereafter, conidiospores of fungi causing wheat powdery mildew disease (Erysiphe graminis f.sp.tritici) were sprinkled on the young wheat seedlings to inoculate them (treated area). As a control, the conidiospores of fungi causing wheat powdery mildew disease (Erysiphe graminis f.sp.tritici) were sprinkled on young wheat seedlings unsprayed with the drug liquid (untreated area). They were left still in a greenhouse at 20° C. Six days after inoculation, leaves of young wheat seedlings were visually observed, and the lesion area ratio was determined to calculate the control value in a similar manner to the previous test.

Colletotrichum acutatum = assay: Fungicidal effect test against fungi causing apple anthracnose; conditions: 96 h, read-out: growth inhibition ratio
Botrytis cinerea [2] = assay type: cell-based; conditions: 120 h, 25 ppm by volume, Vogel medium, 20° C., five days, dark, read-out: growth inhibition ratio
Glomerella cingulata = assay: Fungicidal effect test against fungi causing grape ripe rot disease; conditions: Colletotrichum gloeosporioides, 72 h, read-out: growth inhibition ratio
Botrytis cinerea [3] = assay: Control test of cucumber gray mold (sprayed young cucumber seedlings); assay type: in vivo; conditions: 96 h, four days after inoculation; for pest or weed control at 125 ppm: 125 ppm by mass spray
Protocol: Then, the drug liquid was sprayed onto young cucumber seedlings cultivated in a nursery pot (variety “Jihai”-based, cotyledon stage), and then air-dried. […] They were left still in a moist room at 20° C. Four days after inoculation, leaves of the young cucumber seedlings were visually observed, and the control value was calculated from the lesion area ratio in accordance with the following equation. [formula]

Venturia inaequalis = assay: Control test of apple scab disease (sprayed young apple seedlings); assay type: in vivo; conditions: 125 ppm by mass spray, 12 to 14 days after inoculation
Protocol: [formula] […] Then, the drug liquid was sprayed onto young apple seedlings cultivated in a nursery pot (variety “Orin”, three-to four-leaf stage), and then air-dried. Thereafter, conidiospores of fungi causing apple scab disease (Venturia inaequalis) were inoculated thereon (treated area). As a control, the conidiospores were inoculated in a similar manner to the above on young apple seedlings unsprayed with the drug liquid (untreated area). They were left still at 20° C. in a moist room with light and dark cycles repeated every 12 hours. 12 Days to 14 days after inoculation, leaves of young apple seedlings were visually observed, and the control value was calculated from the lesion area ratio in accordance with the equation used in the control test of cucumber gray mold.

COC(=O)N(Cc1ccc(C)cc1C)NC(=O)c1cc(N(C)C)ncc1Oc1cccc(C2CC2)c1F [b-125]
≥ 75%: pest or weed control at 125 ppm [1] | inhibition of growth at 25 ppm (Colletotrichum acutatum) | inhibition of growth at 25 ppm (Botrytis cinerea [2]) | inhibition of growth at 25 ppm (Glomerella cingulata)

COC(=O)N(Cc1ccc(C)nc1C)NC(=O)c1cc(C)nnc1Oc1cccc(C2CC2)c1F [b-60]
≥ 75%: pest or weed control at 125 ppm [1] | inhibition of growth at 25 ppm (Colletotrichum acutatum) | inhibition of growth at 25 ppm (Glomerella cingulata)

COC(=O)N(Cc1ccc([N+](=O)[O-])cc1C)NC(=O)c1cc(C)nnc1Oc1cccc(C2CC2)c1F [b-162]
≥ 75%: pest or weed control at 125 ppm [1] | inhibition of growth at 25 ppm (Colletotrichum acutatum) | inhibition of growth at 25 ppm (Botrytis cinerea [2]) | inhibition of growth at 25 ppm (Glomerella cingulata)

COC(=O)N(Cc1ccc(C)cc1C)NC(=O)c1cc(C)nnc1Oc1ccc(C)c(Br)c1 [b-62]
≥ 75%: pest or weed control at 125 ppm [1] | inhibition of growth at 25 ppm (Colletotrichum acutatum) | inhibition of growth at 25 ppm (Botrytis cinerea [2]) | inhibition of growth at 25 ppm (Glomerella cingulata)

COC(=O)N(Cc1ccc(C)cc1C)NC(=O)c1cc(Cl)nnc1Oc1ccc2c(c1)CCC2 [b-79]
≥ 75%: pest or weed control at 125 ppm (Botrytis cinerea [3]) | inhibition of growth at 25 ppm (Colletotrichum acutatum) | pest or weed control at 125 ppm (Venturia inaequalis) | inhibition of growth at 25 ppm (Botrytis cinerea [2]) | inhibition of growth at 25 ppm (Glomerella cingulata)

Cc1ccc(CN(NC(=O)c2cc(C)nnc2Oc2cccc(C3CC3)c2F)S(C)(=O)=O)c(C)c1 [b-26, N′-(3-(3-cyclopropyl-2-fluorophenoxy)-6-methylpyridazine-4-carbonyl)-N-(2,4-dimethylbenzyl)methanesulfonohydrazide]
≥ 75%: inhibition of growth at 25 ppm (Colletotrichum acutatum) | pest or weed control at 125 ppm (Venturia inaequalis) | inhibition of growth at 25 ppm (Botrytis cinerea [2]) | inhibition of growth at 25 ppm (Glomerella cingulata)

COC(=O)N(Cc1ccc(C)cc1C)NC(=O)c1cc(-n2cccn2)ncc1Oc1cccc(C2CC2)c1F [b-186]
≥ 75%: pest or weed control at 25 ppm (Botrytis cinerea [3]; 25 ppm by mass spray) | pest or weed control at 125 ppm (Botrytis cinerea [3]) | inhibition of growth at 25 ppm (Colletotrichum acutatum) | pest or weed control at 125 ppm (Venturia inaequalis) | inhibition of growth at 25 ppm (Botrytis cinerea [2]) | inhibition of growth at 25 ppm (Glomerella cingulata)

COC(=O)N(Cc1ccc(C)cc1C)NC(=O)c1cc(C)nnc1Oc1cccc(Cl)c1Br [b-35]
≥ 75%: pest or weed control at 125 ppm (Venturia inaequalis) | inhibition of growth at 25 ppm (Botrytis cinerea [2])

COC(=O)N(Cc1ccc(-n2cccn2)cc1)NC(=O)c1cc(C)nnc1Oc1cccc(C2CC2)c1F [b-172]
≥ 75%: inhibition of growth at 25 ppm (Colletotrichum acutatum) | pest or weed control at 125 ppm (Venturia inaequalis) | inhibition of growth at 25 ppm (Botrytis cinerea [2]) | inhibition of growth at 25 ppm (Glomerella cingulata)

COC(=O)N(Cc1ccc2ncsc2c1)NC(=O)c1cc(C)nnc1Oc1cccc(C2CC2)c1F [b-173]
≥ 75%: inhibition of growth at 25 ppm (Colletotrichum acutatum) | pest or weed control at 125 ppm (Venturia inaequalis) | inhibition of growth at 25 ppm (Glomerella cingulata)

COC(=O)N(CCc1ccc(Cl)cc1Cl)NC(=O)c1cc(C)nnc1Oc1cccc(C2CC2)c1F [b-65]
≥ 75%: pest or weed control at 125 ppm [1] | inhibition of growth at 25 ppm (Colletotrichum acutatum) | pest or weed control at 125 ppm (Venturia inaequalis) | inhibition of growth at 25 ppm (Glomerella cingulata)

COC(=O)N(Cc1ccc2ccccc2c1)NC(=O)c1cc(C)nnc1Oc1cccc(C2CC2)c1F [b-71]
≥ 75%: inhibition of growth at 25 ppm (Colletotrichum acutatum) | pest or weed control at 125 ppm (Venturia inaequalis) | inhibition of growth at 25 ppm (Botrytis cinerea [2]) | inhibition of growth at 25 ppm (Glomerella cingulata)

CC(=O)C(=O)N(Cc1ccc(C)cc1C)NC(=O)c1cc(C)nnc1Oc1cccc(C2CC2)c1F [b-58, 3-(3-Cyclopropyl-2-fluorophenoxy)-N′-(2,4-dimethylbenzyl)-6-methyl-N′-(2-oxopropanoyl)pyridazine-4-carbohydrazide]
≥ 75%: pest or weed control at 125 ppm (Botrytis cinerea [3]) | pest or weed control at 125 ppm [1] | inhibition of growth at 25 ppm (Colletotrichum acutatum) | inhibition of growth at 25 ppm (Botrytis cinerea [2]) | inhibition of growth at 25 ppm (Glomerella cingulata)

CCc1ccc(Oc2nnc(C)cc2C(=O)NN(Cc2ccc(C)cc2C)C(=O)OC)cc1 [b-51]
≥ 75%: pest or weed control at 125 ppm [1] | inhibition of growth at 25 ppm (Colletotrichum acutatum) | inhibition of growth at 25 ppm (Botrytis cinerea [2]) | inhibition of growth at 25 ppm (Glomerella cingulata)

Cc1ccc(CN(NC(=O)c2cc(C)nnc2Oc2cccc(C3CC3)c2F)C(=O)C2COC2)c(C)c1 [b-40]
≥ 75%: pest or weed control at 125 ppm [1] | inhibition of growth at 25 ppm (Colletotrichum acutatum) | inhibition of growth at 25 ppm (Botrytis cinerea [2]) | inhibition of growth at 25 ppm (Glomerella cingulata)

CSC(=S)N(Cc1ccc(C)cc1C)NC(=O)c1cc(C)nnc1Oc1cccc(C2CC2)c1F [b-174]
≥ 75%: inhibition of growth at 25 ppm (Colletotrichum acutatum) | pest or weed control at 125 ppm (Venturia inaequalis) | inhibition of growth at 25 ppm (Glomerella cingulata)

COC(=O)N(Cc1ccc(Oc2ccccc2)cc1)NC(=O)c1cc(C)nnc1Oc1cccc(C2CC2)c1F [b-165]
≥ 75%: inhibition of growth at 25 ppm (Colletotrichum acutatum) | pest or weed control at 125 ppm (Venturia inaequalis) | inhibition of growth at 25 ppm (Botrytis cinerea [2]) | inhibition of growth at 25 ppm (Glomerella cingulata)

COC(=O)N(Cc1ccc(-c2ccc(F)cc2)cc1)NC(=O)c1cc(C)nnc1Oc1cccc(C2CC2)c1F [b-164]
≥ 75%: inhibition of growth at 25 ppm (Colletotrichum acutatum) | pest or weed control at 125 ppm (Venturia inaequalis) | inhibition of growth at 25 ppm (Botrytis cinerea [2]) | inhibition of growth at 25 ppm (Glomerella cingulata)

COC(=O)N(Cc1ccc(C)cc1C)NC(=O)c1cc(C)nnc1Oc1cccc(C#N)c1F [b-69]
≥ 75%: pest or weed control at 125 ppm [1] | inhibition of growth at 25 ppm (Colletotrichum acutatum) | inhibition of growth at 25 ppm (Botrytis cinerea [2]) | inhibition of growth at 25 ppm (Glomerella cingulata)

COC(=O)N(Cc1ccc(C)cc1C)NC(=O)c1cc(C)nnc1Oc1cc(C)cc(F)c1 [b-144]
≥ 75%: inhibition of growth at 25 ppm (Colletotrichum acutatum) | pest or weed control at 125 ppm (Venturia inaequalis) | inhibition of growth at 25 ppm (Botrytis cinerea [2]) | inhibition of growth at 25 ppm (Glomerella cingulata)

COC(=O)N(Cc1ccc(Cl)nc1Cl)NC(=O)c1cc(C)nnc1Oc1cccc(C2CC2)c1F [b-93, Methyl 2-(3-(3-cyclopropyl-2-fluorophenoxy)-6-methylpyridazine-4-carbonyl)-1-((2,6-dichloropyridin-3-yl)methyl)hydrazine-1-carboxylate]
≥ 75%: pest or weed control at 125 ppm [1] | inhibition of growth at 25 ppm (Colletotrichum acutatum) | inhibition of growth at 25 ppm (Botrytis cinerea [2]) | inhibition of growth at 25 ppm (Glomerella cingulata)

CCc1cccc(Oc2nnc(C)cc2C(=O)NN(Cc2ccc(C)cc2C)C(=O)OC)c1 [b-50]
≥ 75%: pest or weed control at 125 ppm (Botrytis cinerea [3]) | pest or weed control at 125 ppm [1] | inhibition of growth at 25 ppm (Colletotrichum acutatum) | inhibition of growth at 25 ppm (Botrytis cinerea [2]) | inhibition of growth at 25 ppm (Glomerella cingulata)

CC(=O)N(Cc1ccc(Cl)cc1Cl)NC(=O)c1cc(C)nnc1Oc1cccc(C2CC2)c1F [b-13]
≥ 75%: pest or weed control at 125 ppm (Botrytis cinerea [3]) | pest or weed control at 125 ppm [1] | inhibition of growth at 25 ppm (Colletotrichum acutatum) | inhibition of growth at 25 ppm (Botrytis cinerea [2]) | inhibition of growth at 25 ppm (Glomerella cingulata)
